Test results reported in patent publication US6232348A, “Hydroxymethyl derivatives of 2-amino-1,2,3,4-tetrahydronaphthalene as cardiovascular agent” (Zambon Group S.p.A., priority 1997, dated 2001).

Key:
[1] = Absolute oral bioavailability in the dog; assay type: in vivo; settings: Beagle dogs (4), 1 mg/kg oral by gavage vs 0.2 mg/kg bolus, domperidone pretreatment
Experimental: Evaluation of the Absolute Oral Bioavailability
Four Beagle dogs were intramuscularly treated with 20 mg of domperidone (to avoid emesis) and, after 60 minutes, with a bolus of 0.2 mg/kg of a solution of the compound of example 13. The solution of this compound was prepared by dissolving 10 mg thereof in 100 μl of ethanol and 380 μl of 0.1N HCl, the resulting solution being brought to 10 ml with water. Appropriate volumes of this solution were administered to obtain the desired dose based on the dog weight.
Venous blood sample (3 ml) were collected before drug administration and the following times after dosing: 2.5, 5, 10, 15, 20, 30, 45, 60, 90, 120, 180, 240, 300 and 360 minutes.
After a washout period of 7 days, the same 4 Beagle dogs were intramuscularly treated with 20 mg of domperidone and, after 60 minutes, orally treated by gavage with the compound of Example 13 at the dose of 1 mg/kg. […]
The following pharmacokinetic parameters were determined by non-compartmental analysis from the individual plasma concentration of the compound of Example 13: […]
AUC(()-t), the area under the plasma concentration-time curve between time zero and the last concentration observed, estimated by the linear trapezoidal rule; Absolute bioavailability (F), the percentage of oral dose that is systemically available, calculated according to the following equation: [formula] […]

[2] = Hypotensive activity in the anaesthetized dog; assay type: in vivo; settings: intraduodenal (oral) administration, anaesthetized Beagle dogs; 184 nmoles/kg (compound of the invention), 5.52 nmoles/kg (Ref. B), doses equally active i.v.; 0-360 min
Experimental: Evaluation of the Hypotensive Activity in the Dog
Beagle dogs were anhaestetized with sodium pentobarbital (30 mg/kg i.v.) and a catheter was put in their carotid artery to measure the blood pressure. The catheter was connected with a pressure transductor. The compounds were administered by a catheter put in the duodenum. The effect on the average blood pressure is expressed as average effect with respect to the test time (Eavg =AUC0-360 /minutes) according to what described by Fettner S. H. et al., Eur. J. Clin. Pharmacol., 48:351-359, 1995. As reference compound the reference compound B above (Ref. B) was used. The controls were treated with the vehicle only.
The doses used for the oral administration were selected on the basis of the hypotensive activity data obtained after intravenous administration.

D1 = D1 activity on the rabbit splenic artery (RSA); settings: rings contracted with U46619; agonistic activity at the peak of the effect; cumulative administration
Experimental: Evaluation of the D1 Activity on the Rabbit Splenic Artery (RSA)
Artery rings were prepared according to Semeraro et al., Naunyn. Schnied. Arch. Pharmacol., 1990, 342, 539. These were contracted with U46619 (9,11-dideoxy-11α,9α -epoxy-methanprostaglandine F2α) at a submaximal concentration of […]. The tested compounds were cumulatively administered.
As reference compound (S)-N-propyl-N-{6-[2-(2-methoxyphenoxy)-ethylamino]-hexyl}-5,6-dihydroxy-1,2,3,4-tetrahydro-2-naphthylamine dihydrochloride (Ref. A), described in example 6 of the international patent application No. WO 93/19036 was employed. Furthermore a compound of the invention was compared with its corresponding compound having in 5-position a hydroxy group in the place of a hydroxymethyl group. i.e. Compound 22 of the international patent application No. WO 96/08228, (S)-N-propyl-N-{6-[2-(4-methylsulfonylphenyl)-ethylamino]hexyl}-5,6-dihydroxy-1,2,3,4-tetrahydro-2-naphthylamine dihydrobromide (Ref. B). The agonistic activity was evaluated at the peak of the effect and expressed as potency ratio (EC50 of Ref. A/EC50 of the tested compound), as shown in Table 1.

D2 = D2 activity in the rabbit ear artery (REA); parameters: species or system New Zealand rabbit; settings: electrically stimulated artery rings; agonistic activity at the peak of the effect; cumulative administration
Experimental: Evaluation of the D2 Activity in the Rabbit Ear Artery (REA)
Artery rings were prepared following the method described by Steinsland et al., Science, 1978, 443, 199, modified as follows.
Male New Zealand rabbits (weighing 2.5-3 Kg) were sacrificed by a pentobarbital intravenous injection and bled. The central ear artery was cut into 3 mm-rings. The samples were placed into a 25 ml-bath containing a Krebs solution (mM/l): sodium chloride 118, potassium chloride 4.7, calcium chloride 2.5, magnesium sulphate 1.2, sodium hydrogenocarbonate 25, potassium biphosphate 1.2, glucose 11.1, balanced with oxygen 95%/carbon dioxide 5% and maintained at 35±1° C. The Krebs solution was added with EDTA (10 μM) to present the cathecolamine oxidation, with desipramine (0.1 μM) and corticosterone (30 μM) to stop the neuronal and extraneuronal cathecolamine re-uptake.
The samples were electrically stimulated (10 Hz, 1 msec., 40-80 mA, 500 msec long) at intervals of 5 minutes.
The tested compounds were cumulatively administered.
As reference compounds the reference compounds A and B above were employed.
The agonistic activity was evaluated at the peak of the effect and expressed as potency ratio (EC50 of Ref. A/EC50 of the tested compound), as shown in Table 1.

| Absolute oral bioavailability (F) ([1]; listed as Example 13, 1 mg/kg) | bioavailability ([1]; dog, plasma, po, 1 mg/kg, read-out: Absolute oral bioavailability (F)) [%] | D1 activity (RSA), potency ratio (EC50 of Ref. A/EC50 of the tested compound) (D1) | D2 activity (REA), potency ratio (EC50 of Ref. A/EC50 of the tested compound) (D2) | SMILES | average effect on blood pressure (Eavg = AUC0-360/minutes) [2] [mmHg] |
| --- | --- | --- | --- | --- | --- |
| 28-43% | 38.8 ± 7.2 | 2.5 | 1.25 | CCCN(CCCCCCNCCc1ccc(S(C)(=O)=O)cc1)[C@H]1CCc2c(ccc(O)c2CO)C1 [Example 7, (S)-N-propyl-N-(6-(2-(4-methylsulfonylphenyl)ethylamino)hexyl)-5-hydroxymethyl-6-hydroxy-1,2,3,4-tetrahydro-2-naphthylamine] | -17.4±3.0 |
| – | – | 1 | 1 | CCCN(CCCCCCNCCOc1ccccc1OC)[C@H]1CCc2c(ccc(O)c2O)C1.Cl.Cl [Ref. A, (S)-N-propyl-N-{6-[2-(2-methoxyphenoxy)-ethylamino]-hexyl}-5,6-dihydroxy-1,2,3,4-tetrahydro-2-naphthylamine dihydrochloride] | – |
| – | – | 50 | 3.3 | Br.Br.CCCN(CCCCCCNCCc1ccc(S(C)(=O)=O)cc1)[C@H]1CCc2c(ccc(O)c2O)C1 [Ref. B, (S)-N-propyl-N-{6-[2-(4-methylsulfonylphenyl)-ethylamino]hexyl}-5,6-dihydroxy-1,2,3,4-tetrahydro-2-naphthylamine dihydrobromide] | -3.5±3.9 |
